Patent publication US20180168160A1, “MICROBICIDAL COMPOSITION” (Rohm and Haas Company, priority 2015, published 2018)
Where two headings read alike, the source gives them in different places.

Tests used:
[1] = system: consortium of selected bacterial species, Escherichia coli (ATCC #25922), Pseudomonas aeruginosa (ATCC #9027, Staphylococcus aureus (ATCC #6538) and Klebsiella …); assay: Synergy test, high resolution MIC microtiter plate assay against a bacterial consortium; format: cell-based; conditions: M9GY medium, 35° C., 24 hrs, visual turbidity, active ingredient basis
Text: (§1) One measure of synergism is the industrially accepted method described by Kull, F. C.; Eisman, P. C.; Sylwestrowicz, H. D. and Mayer, R. L., in Applied Microbiology 9:538-541 (1961), using the ratio determined by the formula: Qa/QA+Qb/QB=Synergy Index (“SI”) wherein: QA=concentration of compound A (first component) in ppm, acting alone, which produced an end point (MIC of Compound A). QA=concentration of compound A in ppm, in the mixture, which produced an end point. QB=concentration of compound B (second component) in ppm, acting alone, which produced an end point (MIC of Compound B). Qb=concentration of compound B in ppm, in the mixture, which produced an end point.
(§2) When the sum of Qa/QA and Qb/QB is greater than one, antagonism is indicated. […] The lower the SI, the greater the synergy shown by that particular mixture. The minimum inhibitory concentration (MIC) of a microbicide is the lowest concentration tested under a specific set of conditions that prevents the growth of added microorganisms.
(§3) Synergy tests were conducted using standard microtiter plate assays with media designed for optimal growth of the test microorganism. Minimal salt medium supplemented with 0.2% glucose and 0.1% yeast extract (M9GY medium) was used for testing bacteria. In this method, a wide range of combinations of microbicides was tested by conducting high resolution MIC assays in the presence of various concentrations of DMDMH and Dazomet or THNM and Dazomet. High resolution MICs were determined by adding varying amounts of microbicide to one column of a microtiter plate and doing subsequent […] dilutions using an automated liquid handling system to obtain a series of endpoints ranging from 2 ppm to 1,000 ppm active ingredient.
(§4) The synergy of the combinations of the present invention was determined against a consortium of selected bacterial species, Escherichia coli (ATCC #25922), Pseudomonas aeruginosa (ATCC #9027, Staphylococcus aureus (ATCC #6538) and Klebsiella pneumoniae (ATCC #13883). The consortium was prepared using approximately 1×10^6 CFU per mL of each species. These microorganisms are representative of natural contaminants in many industrial applications. The plates were visually evaluated for microbial growth (turbidity) to determine the MIC after selected incubation times at 35° C. after 24 hrs.
(§5) In each test, Second Component (B) was Dazomet and the First Component (A) was DMDMH.

[2] = as above; format: cell-based; conditions: M9GY medium, 35° C., 24 hrs, visual turbidity, active ingredient basis
Text: as §1, §2, §3, §4, §5

Question: Which “MIC of DMDMH alone (QA)” value ([1]; Table 1) does the source give for `CC1(C)C(=O)N(CO)C(=O)N1CO` [DMDMH, dimethylol-dimethylhydantoin] here?
Answer: 200 µg/mL

Question: With `CN1CSC(=S)N(C)C1` [Dazomet, 3,5-dimethyl-1,3,5-thiadiazinane-2-thione] as the molecule, how does the MIC ([2]; Table 1, read-out: MIC of Dazomet alone (QB)) read?
Answer: 100 µg/mL

Question: And the “MIC of Dazomet alone (QB)” value ([1]; Table 2)?
Answer: 100 µg/mL

Question: With `O=[N+]([O-])C(CO)(CO)CO` [THNM, tris(hydroxymethyl)nitromethane] as the molecule, how does the MIC ([2]; Table 2, read-out: MIC of THNM alone (QA)) read?
Answer: 400 µg/mL
